The text below walks through data of paper PMC12118597 (Science Advances, 2025).

The test deals with SARS-CoV-2 NSP3 macrodomain (Mac1) (Severe acute respiratory syndrome coronavirus 2, UniProt P0DTD1). It counts as binding. The following applies: for 1-BDC (PanDDA run, DMSO background map): event 1; for 2*(1-BDC) (%): occupancy estimate from PanDDA; for Total number of conformations: ligand conformations modeled in the crystal structure.
[1] abbreviates: TRUE = ligand-bound crystal structure obtained (PDB code given).
Where [2] appears, read: crystal soak concentration 20 mM, DMSO background map.
Setting [3] is: crystal soak concentration 20 mM, P43 crystals.
The mark [4] stands for this setting: site of Mac1 occupied in the X-ray crystal structure (Adenosine or Distal).
The mark [5] stands for this setting: soak concentration 10 mM, DMSO background map.
Where [6] appears, read: soak concentration 10 mM, P43 crystals.
[7] abbreviates: PanDDA background density correction factor.
Where [8] appears, read: refined crystallographic occupancy.
Where [9] appears, read: crystal soak 10 mM, P43 crystal form.
Setting [10] is: crystal soak 10 mM, DMSO background map.
Where [11] appears, read: TRUE = crystal structure with ligand obtained.
Where [12] appears, read: site of Mac1 occupied in the X-ray crystal structure.
The mark [13] stands for this setting: crystal soak 5 mM, P43 crystal form.
The mark [14] stands for this setting: crystal soak 5 mM, DMSO background map.
The mark [15] stands for this setting: site of ligand in X-ray crystal structure.

The structures appear in SMILES notation. Where “and” joins values, the source holds several entries; their conditions need not be identical. Equal values may be shown once. Read-outs that look alike come from different tables or passages of the source.

As for `CNc1ccc(NS(=O)(=O)c2cc3cccc(C)c3s2)cn1` [AVI-345], the “2*(1-BDC) (%)” value is 52%. Under “PanDDA background density correction, 1-BDC”, this molecule showed a 1-BDC of 0.26. In addition, under setting [1], the X-ray crystal structure entry is on record as “TRUE”. Moreover, under setting [2], the “Hit (PanDDA run, DMSO background map)” value is on record as “TRUE”; the “Modeled (PanDDA run, DMSO background map)” value was “TRUE”; the “1-BDC (PanDDA run, DMSO background map)” value is 0.26. Further, under setting [3], the “Hit (PanDDA run, overall)” value is on record as “TRUE” and the “Modeled (PanDDA run, overall)” value is given as “TRUE”. Further, the “Refined ligand occupancy (%)” value (crystallographic refinement) is recorded as 52%. Further, under setting [4], the Binding site result is reported as “Adenosine”. Under setting [5], the “PanDDA run, DMSO background map: 1-BDC” value was found to be 0.17 and the “PanDDA run, DMSO background map: Hit” value is given as “TRUE”. Under setting [6], the “PanDDA run, overall: Hit” value is “TRUE” and the “PanDDA run, overall: Modeling comment” value is “Duplicate, not modeled”.

Turning to `CC1CCN(C(=O)c2ccc3c(c2)nc(CO)n3C)CC1C(=O)O` (stereo not shown) [AVI-348], the “Occupancy difference (refined_occupancy - 2*(1-BDC))” value (“Occupancy difference” below) was 0, the “Total number of conformations” value was 1 and the “2*(1-BDC) (%)” value is 50%. The molecule also came in with a 1-BDC under setting [7] of 0.25. Further, the X-ray crystal structure entry under setting [1] was “TRUE”. Further, under setting [2], the “Hit (PanDDA run, DMSO background map)” value is “TRUE” and the “1-BDC (PanDDA run, DMSO background map)” value is reported as 0.34. In addition, under setting [3], the “Hit (PanDDA run, overall)” value was “TRUE” and the “Modeling comment (PanDDA run, overall)” value is “Duplicate, not modeled”. For the same molecule, the “Refined ligand occupancy (%)” value under setting [8] came out at 50%. In addition, under setting [4], the Binding site result was “Adenosine”. Under setting [5], the “PanDDA run, DMSO background map: 1-BDC” value came to 0.25; the “PanDDA run, DMSO background map: Hit” value was “TRUE”; the “PanDDA run, DMSO background map: Modeled” value is listed as “TRUE”. Moreover, under setting [6], the “PanDDA run, overall: Hit” value was “TRUE” and the “PanDDA run, overall: Modeled” value is given as “TRUE”.

As for `OC[C@@H]1C[C@H](F)CN1c1ncnc2[nH]ccc12` [AVI-609], the “Occupancy difference” value was 0, the “Total number of conformations” value is recorded as 1 and the “2*(1-BDC) (%)” value is listed as 34%. Besides, the 1-BDC under setting [7] was determined as 0.17. In addition, the “PanDDA run, overall: Hit” value under setting [9] is “TRUE”. Under setting [10], the “PanDDA run, DMSO background map: 1-BDC” value is 0.17 and the “PanDDA run, DMSO background map: Hit” value was “TRUE”. Further, the X-ray crystal structure entry (ligand-bound crystal structure obtained (TRUE)) is reported as “TRUE”. Also, the “Refined ligand occupancy (%)” value under setting [8] is 34%. In addition, for the setting “site occupied in X-ray crystal structure”, the Binding site entry is listed as “Adenosine”.

Regarding `NC(=O)C1(O)CCN(c2ncnc3[nH]ccc23)C1` (stereo not shown) [AVI-611], the “Occupancy difference” value was 0, the “Total number of conformations” value is reported as 2 and the “2*(1-BDC) (%)” value is 44%. This molecule had a 1-BDC under setting [7] of 0.22. Also, the X-ray crystal structure result under setting [11] is reported as “TRUE”. Also, the “PanDDA run, overall: Hit” value under setting [9] is reported as “TRUE”. Further, under setting [10], the “PanDDA run, DMSO background map: 1-BDC” value was 0.22 and the “PanDDA run, DMSO background map: Hit” value is “TRUE”. Also, the “Refined ligand occupancy (%)” value under setting [8] is 44%. Moreover, the Binding site entry under setting [12] was “Adenosine”.

For the molecule `CCC1(O)CCN(c2ncnc3[nH]ccc23)C1` (stereo not shown) [AVI-612], the “Occupancy difference” value was 0, the “Total number of conformations” value was 1 and the “2*(1-BDC) (%)” value was 34%. This molecule returned a 1-BDC under setting [7] of 0.17. Besides, the X-ray crystal structure entry under setting [11] is on record as “TRUE”. Further, the “PanDDA run, overall: Hit” value under setting [13] was “TRUE”. In addition, under setting [14], the “PanDDA run, DMSO background map: 1-BDC” value stood at 0.17 and the “PanDDA run, DMSO background map: Hit” value is “TRUE”. The “Refined ligand occupancy (%)” value under setting [8] is reported as 34%. For the same molecule, the Binding site entry under setting [12] was “Adenosine”.

For `CN(C)C[C@@]1(O)CCCN(c2ncnc3[nH]ccc23)C1` [AVI-614], the “PanDDA run, overall: Modeling comment” value (crystal soak 10 mM) is reported as “Weak density, not modeled”. In addition, the “PanDDA run, overall: Hit” value under setting [9] is recorded as “TRUE”. Under setting [10], the “PanDDA run, DMSO background map: 1-BDC” value is reported as 0.17 and the “PanDDA run, DMSO background map: Hit” value is on record as “TRUE”.

For `O[C@@H]1CN(c2ncnc3[nH]ccc23)C[C@H]1F` [AVI-616], the “Occupancy difference” value was found to be 0, the “Total number of conformations” value is 1 and the “2*(1-BDC) (%)” value is given as 40%. Moreover, the 1-BDC under setting [7] came out at 0.2. Under setting [11], the X-ray crystal structure entry was “TRUE”. For the same molecule, the “PanDDA run, overall: Hit” value under setting [9] is given as “TRUE”. Under setting [10], the “PanDDA run, DMSO background map: 1-BDC” value is given as 0.2 and the “PanDDA run, DMSO background map: Hit” value is “TRUE”. The “Refined ligand occupancy (%)” value under setting [8] was 40%. The Binding site entry under setting [12] is “Adenosine”.

Take `O[C@@H]1COC[C@H]1Nc1ncnc2[nH]ccc12` [AVI-1443]: the “PanDDA run, overall: Modeling comment” value (crystal soak 5 mM) is given as “Weak density, not modeled”. For the same molecule, under setting [13], the “PanDDA run, overall: Hit” value is “TRUE”. Under setting [14], the “PanDDA run, DMSO background map: 1-BDC” value was 0.05 and 0.04; the “PanDDA run, DMSO background map: Hit” value is recorded as “TRUE”.

With `O[C@H]1COC[C@@H]1Nc1ncnc2[nH]ccc12` [AVI-1444, (3R,4S)-4-((7H-pyrrolo[2,3-d]pyrimidin-4-yl)amino)tetrahydrofuran-3-ol], the “Occupancy difference” value stood at 0, the “Total number of conformations” value is given as 1 and the “2*(1-BDC) (%)” value is 16%. For the same molecule, the 1-BDC under setting [7] came out at 0.08. In addition, under setting [11], the X-ray crystal structure result is “TRUE”. Also, under setting [9], the “PanDDA run, overall: Hit” value is given as “TRUE”. Under setting [10], the “PanDDA run, DMSO background map: 1-BDC” value is 0.08 and 0.11; the “PanDDA run, DMSO background map: Hit” value was “TRUE”. For the same molecule, under setting [8], the “Refined ligand occupancy (%)” value came out at 16%. Also, the Binding site result under setting [15] is “Adenosine”.

Take `O=C(O)C(F)(F)F.OC1c2ccccc2CC1Nc1ncnc2[nH]ccc12` (stereo not shown) [AVI-3634]: the “PanDDA run, overall: Modeling comment” value (crystal soak 10 mM) is “TFA only”.

Take `CCC(Nc1ncnc2[nH]ccc12)C(C)O` (stereo not shown) [AVI-3635]: the “Occupancy difference” value worked out at 0, the “Total number of conformations” value is given as 2 and the “2*(1-BDC) (%)” value was 28%. In addition, the 1-BDC under setting [7] is recorded as 0.14. Further, the X-ray crystal structure entry under setting [11] was “TRUE”. Under setting [9], the “PanDDA run, overall: Hit” value is given as “TRUE” and the “PanDDA run, overall: Modeled” value was “TRUE”. Besides, under setting [10], the “PanDDA run, DMSO background map: 1-BDC” value is 0.23 and 0.14; the “PanDDA run, DMSO background map: Hit” value is recorded as “TRUE”. For the same molecule, the “Refined ligand occupancy (%)” value under setting [8] amounted to 28%. Under setting [15], the Binding site entry was “Adenosine”.

In the case of `OCC(CC(F)(F)F)Nc1ncnc2[nH]ccc12` (stereo not shown) [AVI-3637], the “Occupancy difference” value was 0, the “Total number of conformations” value is 1 and the “2*(1-BDC) (%)” value was 46%. The molecule also registered a 1-BDC under setting [7] of 0.23. The X-ray crystal structure entry under setting [11] is “TRUE”. Also, the “PanDDA run, overall: Hit” value under setting [9] is “TRUE”. Besides, under setting [10], the “PanDDA run, DMSO background map: 1-BDC” value is 0.23 and the “PanDDA run, DMSO background map: Hit” value is listed as “TRUE”. Under setting [8], the “Refined ligand occupancy (%)” value came out at 46%. Further, the Binding site entry under setting [15] is “Adenosine”.

Consider `OCC(Nc1ncnc2[nH]ccc12)C1CCC1` (stereo not shown) [AVI-3638], for which the “Occupancy difference” value was determined as 0, the “Total number of conformations” value is given as 1 and the “2*(1-BDC) (%)” value is on record as 26%. Under setting [7], this molecule yielded a 1-BDC of 0.13. For the same molecule, the X-ray crystal structure result under setting [11] was “TRUE”. Under setting [9], the “PanDDA run, overall: Hit” value is “TRUE” and the “PanDDA run, overall: Modeled” value was “TRUE”. For the same molecule, under setting [10], the “PanDDA run, DMSO background map: 1-BDC” value is 0.13 and the “PanDDA run, DMSO background map: Hit” value is “TRUE”. Besides, the “Refined ligand occupancy (%)” value under setting [8] was 26%. For the same molecule, the Binding site result under setting [15] is “Adenosine”.
